# PubChem BioAssay (NCI)
#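 Assay format: 96-well plates, 48-hour exposure. Abbreviation: GI50, concentration required for 50% inhibition of growth. The concentration for full growth arrest is given as TGI.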
# Legend:
# Experiment in all cases: DTP human tumour cell line panel, 48 h
# 786-0 renal = system: 786-0 renal
# A549 NSCLC = system: A549 NSCLC
# ACHN renal = system: ACHN renal
# BT-549 breast = system: BT-549 breast
# CAKI-1 renal = system: CAKI-1 renal
# CCRF-CEM leukemia = system: CCRF-CEM leukemia
# COLO 205 colon = system: COLO 205 colon
# DU-145 prostate = system: DU-145 prostate
# EKVX NSCLC = system: EKVX NSCLC
# HCC-2998 colon = system: HCC-2998 colon
# HCT-116 colon = system: HCT-116 colon
# HCT-15 colon = system: HCT-15 colon
# HL-60(TB) leukemia = system: HL-60(TB) leukemia
# HOP-62 NSCLC = system: HOP-62 NSCLC
# HOP-92 NSCLC = system: HOP-92 NSCLC
# HT29 colon = system: HT29 colon
# IGROV1 ovarian = system: IGROV1 ovarian
# K-562 leukemia = system: K-562 leukemia
# KM12 colon = system: KM12 colon
# LOX IMVI melanoma = system: LOX IMVI melanoma
# M14 melanoma = system: M14 melanoma
# MALME-3M melanoma = system: MALME-3M melanoma
# MCF7 breast = system: MCF7 breast
# MDA-MB-231 breast = system: MDA-MB-231 breast
# MDA-MB-435 = system: MDA-MB-435
# MOLT-4 leukemia = system: MOLT-4 leukemia
# NCI-H226 lung = system: NCI-H226 lung
# NCI-H23 lung = system: NCI-H23 lung
# NCI-H460 lung = system: NCI-H460 lung
# NCI-H522 lung = system: NCI-H522 lung
# NCI/ADR-RES ovarian = system: NCI/ADR-RES ovarian
# OVCAR-3 ovarian = system: OVCAR-3 ovarian
# OVCAR-4 ovarian = system: OVCAR-4 ovarian
# OVCAR-5 ovarian = system: OVCAR-5 ovarian
# OVCAR-8 ovarian = system: OVCAR-8 ovarian
# PC-3 prostate = system: PC-3 prostate
# RPMI-8226 leukemia = system: RPMI-8226 leukemia
# RXF 393 renal = system: RXF 393 renal
# SF-268 CNS = system: SF-268 CNS
# SF-295 CNS = system: SF-295 CNS
# SF-539 CNS = system: SF-539 CNS
# SK-MEL-2 melanoma = system: SK-MEL-2 melanoma
# SK-MEL-28 melanoma = system: SK-MEL-28 melanoma
# SK-MEL-5 melanoma = system: SK-MEL-5 melanoma
# SK-OV-3 ovarian = system: SK-OV-3 ovarian
# SN12C renal = system: SN12C renal
# SNB-19 CNS = system: SNB-19 CNS
# SNB-75 CNS = system: SNB-75 CNS
# SR leukemia = system: SR leukemia
# SW-620 colon = system: SW-620 colon
# T-47D breast = system: T-47D breast
# TK-10 renal = system: TK-10 renal
# U251 CNS = system: U251 CNS
# UACC-257 melanoma = system: UACC-257 melanoma
# UACC-62 melanoma = system: UACC-62 melanoma
# UO-31 renal = system: UO-31 renal
smiles,measurement,setting,value
CN(C)c1ccc(N=C(C#N)c2nc(N)nc(N3CCN(c4ccccc4)CC3)n2)cc1,GI50,786-0 renal,> 50 µM
same,TGI,786-0 renal,> 50 µM
same,GI50,A549 NSCLC,15.3 µM
same,TGI,A549 NSCLC,> 34.2 µM
same,GI50,ACHN renal,22.3 µM
same,TGI,ACHN renal,> 50 µM
same,GI50,BT-549 breast,23.6 µM
same,TGI,BT-549 breast,> 50 µM
same,GI50,CAKI-1 renal,20.4 µM
same,TGI,CAKI-1 renal,> 46.7 µM
same,GI50,CCRF-CEM leukemia,> 50 µM
same,TGI,CCRF-CEM leukemia,> 50 µM
same,GI50,COLO 205 colon,> 42.4 µM
same,TGI,COLO 205 colon,> 50 µM
same,GI50,DU-145 prostate,11.6 µM
same,TGI,DU-145 prostate,> 28.1 µM
same,GI50,EKVX NSCLC,> 30.1 µM
same,TGI,EKVX NSCLC,> 50 µM
same,GI50,HCC-2998 colon,26.6 µM
same,TGI,HCC-2998 colon,> 50 µM
same,GI50,HCT-116 colon,17.4 µM
same,TGI,HCT-116 colon,> 50 µM
same,GI50,HCT-15 colon,> 28.5 µM
same,TGI,HCT-15 colon,> 50 µM
same,GI50,HL-60(TB) leukemia,> 50 µM
same,TGI,HL-60(TB) leukemia,> 50 µM
same,GI50,HOP-62 NSCLC,> 28.6 µM
same,TGI,HOP-62 NSCLC,> 50 µM
same,GI50,HOP-92 NSCLC,49.8 µM
same,TGI,HOP-92 NSCLC,> 50 µM
same,GI50,HT29 colon,21.2 µM
same,TGI,HT29 colon,> 50 µM
same,GI50,IGROV1 ovarian,14.8 µM
same,TGI,IGROV1 ovarian,> 50 µM
same,GI50,K-562 leukemia,> 50 µM
same,TGI,K-562 leukemia,> 50 µM
same,GI50,KM12 colon,49.6 µM
same,TGI,KM12 colon,> 50 µM
same,GI50,LOX IMVI melanoma,19.6 µM
same,TGI,LOX IMVI melanoma,> 45.1 µM
same,GI50,M14 melanoma,> 50 µM
same,TGI,M14 melanoma,> 50 µM
same,GI50,MALME-3M melanoma,0.0338 µM
same,TGI,MALME-3M melanoma,1.16 µM
same,GI50,MCF7 breast,21 µM
same,TGI,MCF7 breast,37.4 µM
same,GI50,MDA-MB-231 breast,10.7 µM
same,TGI,MDA-MB-231 breast,31.3 µM
same,GI50,MDA-MB-435,> 43.9 µM
same,TGI,MDA-MB-435,> 50 µM
same,GI50,MOLT-4 leukemia,> 50 µM
same,TGI,MOLT-4 leukemia,> 50 µM
same,GI50,NCI-H226 lung,22.3 µM
same,TGI,NCI-H226 lung,> 50 µM
same,GI50,NCI-H23 lung,> 50 µM
same,TGI,NCI-H23 lung,> 50 µM
same,GI50,NCI-H460 lung,14.7 µM
same,TGI,NCI-H460 lung,> 37 µM
same,GI50,NCI-H522 lung,> 50 µM
same,TGI,NCI-H522 lung,> 50 µM
same,GI50,NCI/ADR-RES ovarian,34.2 µM
same,TGI,NCI/ADR-RES ovarian,> 50 µM
same,GI50,OVCAR-3 ovarian,27.5 µM
same,TGI,OVCAR-3 ovarian,> 50 µM
same,GI50,OVCAR-4 ovarian,18.9 µM
same,TGI,OVCAR-4 ovarian,> 34.1 µM
same,GI50,OVCAR-5 ovarian,> 50 µM
same,TGI,OVCAR-5 ovarian,> 50 µM
same,GI50,OVCAR-8 ovarian,18 µM
same,TGI,OVCAR-8 ovarian,> 37.2 µM
same,GI50,PC-3 prostate,36.9 µM
same,TGI,PC-3 prostate,> 50 µM
same,GI50,RPMI-8226 leukemia,> 26.8 µM
same,TGI,RPMI-8226 leukemia,> 50 µM
same,GI50,RXF 393 renal,22.1 µM
same,TGI,RXF 393 renal,39.1 µM
same,GI50,SF-268 CNS,11.7 µM
same,TGI,SF-268 CNS,34.9 µM
same,GI50,SF-295 CNS,14.7 µM
same,TGI,SF-295 CNS,> 43.7 µM
same,GI50,SF-539 CNS,18.4 µM
same,TGI,SF-539 CNS,> 50 µM
same,GI50,SK-MEL-2 melanoma,> 50 µM
same,TGI,SK-MEL-2 melanoma,> 50 µM
same,GI50,SK-MEL-28 melanoma,12.7 µM
same,TGI,SK-MEL-28 melanoma,> 50 µM
same,GI50,SK-MEL-5 melanoma,24.5 µM
same,TGI,SK-MEL-5 melanoma,> 47.5 µM
same,GI50,SK-OV-3 ovarian,16.6 µM
same,TGI,SK-OV-3 ovarian,> 35.4 µM
same,GI50,SN12C renal,> 50 µM
same,TGI,SN12C renal,> 50 µM
same,GI50,SNB-19 CNS,> 50 µM
same,TGI,SNB-19 CNS,> 50 µM
same,GI50,SNB-75 CNS,6.9 µM
same,TGI,SNB-75 CNS,25.6 µM
same,GI50,SR leukemia,> 50 µM
same,TGI,SR leukemia,> 50 µM
same,GI50,SW-620 colon,22.1 µM
same,TGI,SW-620 colon,> 50 µM
same,GI50,T-47D breast,> 50 µM
same,TGI,T-47D breast,> 50 µM
same,GI50,TK-10 renal,> 30.6 µM
same,TGI,TK-10 renal,> 50 µM
same,GI50,U251 CNS,> 35.1 µM
same,TGI,U251 CNS,> 50 µM
same,GI50,UACC-257 melanoma,28.1 µM
same,TGI,UACC-257 melanoma,> 44.2 µM
same,GI50,UACC-62 melanoma,> 50 µM
same,TGI,UACC-62 melanoma,> 50 µM
same,GI50,UO-31 renal,> 18 µM
same,TGI,UO-31 renal,> 32.5 µM
